Marks after values point to notes of the source that are not given here.
Legend:
[1] = OLINDA/EXM predicted clinical doses: adult male phantom, non-normalised τ, iterative; parameters: species or system Sprague–Dawley rats; settings: rat, in vivo
Method: PET studies were reconstructed using filtered-back projection (FBP) and Mediso’s iterative Tera-Tomo 3D reconstruction algorithm with the following settings: 4 iterations, 6 subsets, full detector model, normal regularization, spike filter on, voxel size 0.4 mm and 400‒600 keV energy window. PET data were corrected for randoms, scatter and attenuation. Time-activity curves for each source organ, whole-body and remainder of the body were plotted. […] Residence times (τ) were determined for each radiotracer in source organs, whole-body and remaining (any activity assigned to the whole-body but not assigned to a source organ). Each preclinical source organ’s τ was determined by calculating the area under its respective time-activity curve (activity normalised to the percentage maximum injected dose as a function of time) using the trapezoid method. […] From each individual animal, eight dosimetry models were constructed from all possible combinations of image reconstruction method (FBP or iterative), τ (non-normalised or normalised to human organ masses), and sex of phantom (male or female).

[2] = Whole-body PET biodistribution in rats; type: in vivo, Sprague–Dawley rats; settings: PET images, i.v. bolus, 240 min
Method: On the day of imaging, rats were anaesthetised with 2‒2.5% isoflurane (50/50 oxygen/nitrous oxide, 1 L/min), then transferred to the preclinical PET/CT scanner (nanoPET/CT, Mediso, Hungary) and placed in a supine position. A CT scan (semi-circular full trajectory, maximum field of view, 480 projections, 50 kVp, 300 ms and 1:4 binning) was acquired for attenuation correction.
Immediately after radiotracer administration, a 240 min emission scan using 4 beds (50% overlap) was obtained using 3-dimensional 1:5 mode and re-binned as follows: 7 × 1 min, 2 × 5 min and 4 × 10 min. Throughout the PET/CT scanning session, animal temperature and respiration rate were monitored and controlled.
PET studies were reconstructed using filtered-back projection (FBP) and Mediso’s iterative Tera-Tomo 3D reconstruction algorithm with the following settings: 4 iterations, 6 subsets, full detector model, normal regularization, spike filter on, voxel size 0.4 mm and 400‒600 keV energy window. PET data were corrected for randoms, scatter and attenuation.
Reconstructed whole-body PET/CT images were imported into PMOD 3.8 software (PMOD Technologies, Switzerland) and static regions-of-interest (ROIs) were selected in approximately every third axial slice of source organs in animal subjects, which included the kidneys (left and right), urinary bladder, lungs (right and left), heart, brain, liver and intestine. […]

| Effective Dose (mSv/MBq), Average ± SD [1] | Estimated Absorbed Dose of Organ, Average ± SD: Adrenals [1] | Estimated Absorbed Dose of Organ, Average ± SD: Brain [1] | Estimated Absorbed Dose of Organ, Average ± SD: Breasts [1] | Estimated Absorbed Dose of Organ, Average ± SD: Gallbladder Wall [1] | Estimated Absorbed Dose of Organ, Average ± SD: Heart Wall [1] | Estimated Absorbed Dose of Organ, Average ± SD: Kidneys [1] | Estimated Absorbed Dose of Organ, Average ± SD: LLI Wall [1] | Estimated Absorbed Dose of Organ, Average ± SD: Liver [1] | Estimated Absorbed Dose of Organ, Average ± SD: Lungs [1] | Estimated Absorbed Dose of Organ, Average ± SD: Muscle [1] | Estimated Absorbed Dose of Organ, Average ± SD: Osteogenic Cells [1] | Estimated Absorbed Dose of Organ, Average ± SD: Pancreas [1] | Estimated Absorbed Dose of Organ, Average ± SD: Red Marrow [1] | Estimated Absorbed Dose of Organ, Average ± SD: Skin [1] | Estimated Absorbed Dose of Organ, Average ± SD: Small Intestine [1] | Estimated Absorbed Dose of Organ, Average ± SD: Spleen [1] | Estimated Absorbed Dose of Organ, Average ± SD: Stomach Wall [1] | Estimated Absorbed Dose of Organ, Average ± SD: Testes [1] | Estimated Absorbed Dose of Organ, Average ± SD: Thymus [1] | Compound | further results |
| --- | --- | --- | --- | --- | --- | --- | --- | --- | --- | --- | --- | --- | --- | --- | --- | --- | --- | --- | --- | --- | --- |
| 6.24E-02 mSv/MBq | 9.39E-03 mGy/MBq | 5.73E-03 mGy/MBq | 5.93E-03 mGy/MBq | 1.04E-02 mGy/MBq | 2.60E-02 mGy/MBq | 3.58E-02 § mGy/MBq | 1.92E-01 ‡ mGy/MBq | 9.19E-03 mGy/MBq | 6.86E-03 mGy/MBq | 1.15E-02 mGy/MBq | 1.26E-02 mGy/MBq | 9.88E-03 mGy/MBq | 1.08E-02 mGy/MBq | 6.97E-03 mGy/MBq | 1.91E-02 mGy/MBq | 9.14E-03 mGy/MBq | 9.73E-03 mGy/MBq | 1.82E-02 mGy/MBq | 7.56E-03 mGy/MBq | O=C[C@H]([18F])[C@@H](O)[C@H](O)[C@H](O)CO [FDG, 2-deoxy-2-[^18F]fluoro-D-glucose] | Estimated Absorbed Dose of Organ, Average ± SD: Thyroid [1]: 6.91E-03 mGy/MBq; Estimated Absorbed Dose of Organ, Average ± SD: Total Body [1]: 1.19E-02 mGy/MBq; Estimated Absorbed Dose of Organ, Average ± SD: ULI Wall [1]: 1.49E-02 mGy/MBq; Estimated Absorbed Dose of Organ, Average ± SD: Urinary Bladder Wall [1]: 5.53E-01 † mGy/MBq; organs with highest uptake [2]: brain, heart, kidneys and urinary bladder |
| 6.30E-02 mSv/MBq | 7.60E-03 mGy/MBq | 1.47E-03 mGy/MBq | 4.25E-03 mGy/MBq | 8.74E-03 mGy/MBq | 6.02E-03 mGy/MBq | 4.41E-02 § mGy/MBq | 1.50E-01 ‡ mGy/MBq | 8.14E-03 mGy/MBq | 3.96E-03 mGy/MBq | 1.06E-02 mGy/MBq | 1.00E-02 mGy/MBq | 7.83E-03 mGy/MBq | 9.28E-03 mGy/MBq | 5.85E-03 mGy/MBq | 1.73E-02 mGy/MBq | 7.40E-03 mGy/MBq | 7.65E-03 mGy/MBq | 1.89E-02 mGy/MBq | 5.18E-03 mGy/MBq | NOTA-RGDfK [existing Al^18F-labelled NOTA-RGDfK peptide PET radiotracer; precursor NOTA-RGDfK (1)] | Estimated Absorbed Dose of Organ, Average ± SD: Thyroid [1]: 5.01E-03 mGy/MBq; Estimated Absorbed Dose of Organ, Average ± SD: Total Body [1]: 1.06E-02 mGy/MBq; Estimated Absorbed Dose of Organ, Average ± SD: ULI Wall [1]: 1.35E-02 mGy/MBq; Estimated Absorbed Dose of Organ, Average ± SD: Urinary Bladder Wall [1]: 6.89E-01 † mGy/MBq |

Source: paper PMC7525662, “Preclinical dosimetry models and the prediction of clinical doses of novel positron emission tomography radiotracers” (Scientific Reports, 2020)
